Consider seven molecules from US10945972B2, “Particulate materials” (Nektar Therapeutics, priority 2002, dated 2021).

Common to all, as to format: physicochemical
Data set [1] can be described thus: AFM adhesion force of particles (Example 10). The note with it: for adhesion force per unit area: following correction for surface area; for initial adhesion force for individual particles: in 2H 3H perfluoropentane. As to the method:
The example assessed the force of adhesion of particles of salbutamol sulfate produced using a SEDS™ processes compared to the same compound in micronized form. Conventional AFM analysis was used. Particles of the samples were mounted onto AFM probes and the adhesion force per unit area to a freshly cleaved highly oriented pyrolytic graphite substrate (HOP G, Agar Scientific, Essex, UK) in a liquid (2H 3H perfluoropentane) environment was determined. The contact area involved in the interaction was assessed and related to the force measurements.

Data set [2] in a line: Particle size by AeroSizer time-of-flight (Example 1). Particulars: aerodynamic-equivalent volume mean diameter. As to the method:
(§1) PSD measurements were performed using firstly, AEROSIZER® time-of-flight instrument equipped with AERO-[…]® (TSI Inc., Minneapolis. USA) and secondly, laser diffraction sensor Helos with dry-powder air-dispersion system Rodos (Sympatec GmbH. Germany). The volume mean particle diameter, VMD, was obtained for both instruments using software options. In the general case of non-spherical particles, these instruments cannot provide the exact value of VMD, however, the time-of-flight technique gives an aerodynamic-equivalent particle diameter, whereas the laser diffraction method provides the geometric projection-equivalent diameter. These diameters afford the complementary information on PSD and therefore can be used for comparative size analysis.

The nature of data set [3]: Particle size by Helos/Rodos laser diffraction (Example 1). Particulars: geometric projection-equivalent volume mean diameter; hydrobromide. As to the method:
as §1

The nature of data set [4]: Inverse gas chromatography surface energy (Example 1). The note with it: 303K; for γs^D (mJ/m^2) / ΔGA (kJ/mol) Chloroform / ΔGA (kJ/mol) Toluene: hydrobromide; for ΔGA (kJ/mol) Chloroform: probe chloroform; for ΔGA (kJ/mol) Toluene: probe toluene. The source says: For TBS and FHBr powders, IGC was done using a Hewlett Packard Series 6890 instrument which was specifically modified for IGC measurements by Surface Measurement Systems Ltd (Manchester, UK). The IGC method is described in detail by Tong et al. 2001. (Tong H. H. Y., B. Y. Shekunov, P. York, A. H. L. Chow, 2001. Pharm. Res. 18, 852.) Triplicate measurements in separate packed columns were made. […] The γS^D and ΔGA values were obtained at 303K.

Data set [5] is described as follows: Laser diffraction HELOS/RODOS of TBS (Example 8). Particulars: 2 bar. As for the experimental part:
A small amount of TBS powder was analysed using a laser diffraction RODOS/VIBRI dispersing system (HELOS/RODOS, Sympatec GmbH, Clausthal-Zellerfeld, Germany). The instrument consisted of a laser sensor HELOS and a RODOS dry-powder air-dispersion system (Sympatec GmbH, Clausthal-Zellerfeld, Germany). Different measurement ranges of the laser sensor were provided by interchangeable objectives R1 (0.1-35 μm) and R2 (0.25-87.5 μm). The rate of powder dispersion was controlled by adjusting the pressure of the compressed air flow. A pressure of 2 bar was sufficient to achieve deagglomeration of primary particles without attrition.

Data set [6] can be described thus: AEROSIZER time-of-flight of TBS (Example 8). As for the experimental part:
The TBS samples were also analysed using an AEROSIZER™ (Amherst Process Instruments, Amherst, Mass., USA), provided with pulse jet disperser, the AERODISPERSER™, to introduce the powders to the instrument. The measurement range of the AEROSIZER™ is nominally from 0.2 to 200 μm of aerodynamic diameter with the standard 750 μm diameter tapered nozzle. The micronized and SEDS™ TBS samples were analyzed for 300 seconds in triplicate using normal deagglomeration conditions, feed rate (5000 particles per second) and medium shear force (0.5 psi).

The nature of data set [7]: Differential scanning calorimetry (Example 8). The note with it: DSC, 10° C. min^−1. As to the method:
Prior to sample analysis, a baseline was obtained which was used as a background. […] Temperature and enthalpy were calibrated with the standard materials indium (melting point=156.6° C.) and zinc (melting point=419.5° C.). Samples (1-10) were accurately weighed into pierced, crimped aluminium pans and heated at 10° C. min^−1 over a heating range of 25-290° C. under a nitrogen purge. A chiller unit was used in conjunction with the calorimeter to attain the lower temperatures.
Background: DSC measures the heat that a sample takes up or gives off during a temperature scan.

Where a name gives a salt, the structure may show the parent alone.

Consider “salbutamol sulfate [micronized material, reference compound]”, for which, in data set [1], the “adhesion force per unit area” value is recorded as 100.91 nN/μm^2 and the “initial adhesion force for individual particles” value is reported as 15.77 nN.
As to `CC(Cc1ccc(O)cc1)NCC(O)c1cc(O)cc(O)c1` (centres unmarked) [FHBr Micronised, fenoterol hydrobromide, reference compound], the “VMD (μm) (Time of flight)” value in data set [2] stood at 1.7 μm. Further, the “VMD (μm) (laser diffraction)” value in data set [3] is given as 2.34 μm. In data set [4], the “γs^D (mJ/m^2)” value is reported as 48.53 mJ/m^2, the “ΔGA (kJ/mol) Chloroform” value worked out at 0.69 kJ/mol and the “ΔGA (kJ/mol) Toluene” value is listed as 4.77 kJ/mol.
In the case of `CC(C)(C)NCC(O)c1cc(O)cc(O)c1` (centres unmarked) [TBS 3, terbutaline sulfate], the “Sympatec D4, 3 (μm)” value in data set [5] stood at 1.99 μm. In addition, the “Aerosizer D4, 3 (μm)” value in data set [6] came to 6.69 μm. The “Enthalpy of Fusion” value in data set [7] worked out at 31.35 J/g.
On to `CC(C)(C)NCC(O)c1cc(O)cc(O)c1` (centres unmarked) [TBS 5, terbutaline sulfate], for which the “Sympatec D4, 3 (μm)” value in data set [5] stood at 4.84 μm. The “Aerosizer D4, 3 (μm)” value in data set [6] worked out at 11.44 μm. Moreover, in data set [7], the “Enthalpy of Fusion” value was 57.69 J/g.
For “salbutamol sulfate [SEDS™ produced material]”, in data set [1], the “adhesion force per unit area” value is recorded as 13.52 nN/μm^2 and the “initial adhesion force for individual particles” value stood at 4.21 nN.
In the case of `CC(Cc1ccc(O)cc1)NCC(O)c1cc(O)cc(O)c1` (centres unmarked) [FHBr SEDS, fenoterol hydrobromide], in data set [2], the “VMD (μm) (Time of flight)” value was found to be 1.7 μm. Moreover, the “VMD (μm) (laser diffraction)” value in data set [3] is reported as 3.55 μm. For the same molecule, in data set [4], the “γs^D (mJ/m^2)” value is reported as 49.87 mJ/m^2, the “ΔGA (kJ/mol) Chloroform” value was 0.63 kJ/mol and the “ΔGA (kJ/mol) Toluene” value is given as 3.86 kJ/mol. For the same molecule, the “ΔGA (kJ/mol) Acetone” value in data set [4] (probe acetone) is on record as 13.15 kJ/mol. In addition, the “ΔGA (kJ/mol) Dioxane” value in data set [4] (probe dioxane) is reported as 15.32 kJ/mol. In addition, in data set [4] (probe ethyl acetate), the “ΔGA (kJ/mol) Ethyl acetate” value amounted to 17.48 kJ/mol.
As to `CC(C)(C)NCC(O)c1cc(O)cc(O)c1` (centres unmarked) [TBS 4, terbutaline sulfate], the “Sympatec D4, 3 (μm)” value in data set [5] came out at 4.75 μm. Besides, the “Aerosizer D4, 3 (μm)” value in data set [6] came out at 15.53 μm. Further, the “Enthalpy of Fusion” value in data set [7] was found to be 40.98 J/g.
